Assay results published in patent publication US20110039793A1, “Application of ginsenoside Rb1 in preparing medicaments for treating dilated cardiomyopathy” (priority 2008, published 2011).

How the values were obtained:
[1] = test system: cTnT^R141W transgenic dilated cardiomyopathy mice model; assay: Cardiac microstructure, HE and Masson staining, light microscope; type: in vivo; details: long-term administration, vs model group
Protocol: Effects on the cardiac microstructure of the mice model after a long-term administration of ginsenoside Rb1 (HE and Masson staining)
1) Fix the heart and treated in a standard pathological procedure.
3) Composite staining solution for 5 min;
4) Slightly washed by 0.2% acetic acid solution;
5) 5% phosphotungstic acid for 5-10 min;
6) Immersion cleaning twice by 0.2% acetic acid solution;
7) Brilliant green staining solution for 5 min, immersion cleaning twice by 0.2% acetic acid solution;
8) Ethanol dehydration, xylene transparent and sealed with neutral gum;
9) Observed under light microscope, collagen fibers show green, muscle fibers show red and red blood cells show nacarat.

[2] = test system: cTnT^R141W transgenic dilated cardiomyopathy mice model; assay: M-mode echocardiography, cardiac function and morphous, once a month; type: in vivo; design: CO (Cardiac Output) / LVAW; d (left ventricular anterior wall thickness, end of diastole) / LV Mass (AW) (weight of the left ventricular) / Diameter; d (inner diameter of the left ventricular, end of diastole) / Volume; d (volume of the left ventricular, end of diastole) / SV (Stroke Volume): unit not given here; details: 75 mg/kg in drinking water
Protocol: The positive mice at 1.5 months old are distributed by weight and cardiac function uniformly into the model group and the ginsenoside Rb1 administration group according to the echocardiography result, and each group comprises twelve mice. Ginsenoside Rb1, 75 mg/kg (State Yao zhun Zi, Yun Nan Tean Na Pharmaceutical Co., Ltd) is put into animal drinking water, and continuously administered for seven months.
Echocardiography detection is performed once a month. Mice were anesthetized with tribromoethanol, scanned by small animal ultrasonic apparatus (Vevo 770 small animal ultrasonic detection system, Canada), with 30 MHz probe, M-mode echocardiography were analyzed: Body weight (BW), LVPW, d (the thickness of the left ventricular posterior wall at the end of the diastole), LVPW, s (the thickness of the left ventricular posterior wall at the end of the systole), LVAW, d (the thickness of the left ventricular anterior wall at the end of the diastole), LVAW, s (the thickness of the left ventricular anterior wall at the end of the systole), LV Mass (the weight of the left ventricular), Diameter, s (the inner diameter of the left ventricular at the end of the systole), Diameter, d (the inner diameter of the left ventricular at the end of the diastole), Volume, s (the volume of the left ventricular at the end of the systole), Volume, d (the volume of the left ventricular at the end of the diastole), SV (Stroke Volume), EF (Ejection Fraction), FS (Fractional Shortening) and CO (Cardiac Output).

CC(C)=CCC[C@](C)(O[C@@H]1O[C@H](CO[C@@H]2O[C@H](CO)[C@@H](O)[C@H](O)[C@H]2O)[C@@H](O)[C@H](O)[C@H]1O)[C@H]1CC[C@]2(C)[C@@H]1[C@H](O)C[C@@H]1[C@@]3(C)CC[C@H](O[C@@H]4O[C@H](CO)[C@@H](O)[C@H](O)[C@H]4O[C@@H]4O[C@H](CO)[C@@H](O)[C@H](O)[C@H]4O)C(C)(C)[C@@H]3CC[C@]12C [Rb1, ginsenoside Rb1]
proliferation of interstitial collagen ([1]; Masson staining): significantly decreased | hypertrophy and disordered arrangement of the myocytes ([1]; light microscope): improved | CO (Cardiac Output) ([2]; 0 month of administration): 19.59 ± 2.99 | Diameter; d (inner diameter of the left ventricular, end of diastole) ([2]; 0 month of administration): 4.02 ± 0.32 | Diameter; s (inner diameter of the left ventricular, end of systole) ([2]; 0 month of administration): 2.84 ± 0.41 | EF (Ejection Fraction) ([2]; 0 month of administration): 57.05 ± 7.87 | FS (Fractional Shortening) ([2]; 0 month of administration): 29.77 ± 5.07 | LV Mass (AW) (weight of the left ventricular) ([2]; 0 month of administration): 92.06 ± 17.12 | LVAW; d (left ventricular anterior wall thickness, end of diastole) ([2]; 0 month of administration): 0.67 ± 0.06 | LVAW; s (left ventricular anterior wall thickness, end of systole) ([2]; 0 month of administration): 0.99 ± 0.12 | LVPW; d (left ventricular posterior wall thickness, end of diastole) ([2]; 0 month of administration): 0.67 ± 0.07 | LVPW; s (left ventricular posterior wall thickness, end of systole) ([2]; 0 month of administration): 0.85 ± 0.06 | SV (Stroke Volume) ([2]; 0 month of administration): 40.00 ± 4.42 | Volume; d (volume of the left ventricular, end of diastole) ([2]; 0 month of administration): 71.50 ± 13.77 | Volume; s (volume of the left ventricular, end of systole) ([2]; 0 month of administration): 31.51 ± 11.53 | CO (Cardiac Output) ([2]; 1 month of administration): 22.14 ± 2.64 | Diameter; d (inner diameter of the left ventricular, end of diastole) ([2]; 1 month of administration): 4.33 ± 0.38 | Diameter; s (inner diameter of the left ventricular, end of systole) ([2]; 1 month of administration): 3.01 ± 0.46 | EF (Ejection Fraction) ([2]; 1 month of administration): 58.32 ± 7.31 | FS (Fractional Shortening) ([2]; 1 month of administration): 30.78 ± 4.73 | LV Mass (AW) (weight of the left ventricular) ([2]; 1 month of administration): 120.38 ± 13.83 | LVAW; d (left ventricular anterior wall thickness, end of diastole) ([2]; 1 month of administration): 0.84 ± 0.12 | LVAW; s (left ventricular anterior wall thickness, end of systole) ([2]; 1 month of administration): 1.21 ± 0.13 | LVPW; d (left ventricular posterior wall thickness, end of diastole) ([2]; 1 month of administration): 0.67 ± 0.06 | LVPW; s (left ventricular posterior wall thickness, end of systole) ([2]; 1 month of administration): 0.95 ± 0.11 | SV (Stroke Volume) ([2]; 1 month of administration): 48.69 ± 5.08 | Volume; d (volume of the left ventricular, end of diastole) ([2]; 1 month of administration): 85.37 ± 17.55 | Volume; s (volume of the left ventricular, end of systole) ([2]; 1 month of administration): 36.68 ± 13.77 | CO (Cardiac Output) ([2]; 2 month of administration): 21.89 ± 1.78 | Diameter; d (inner diameter of the left ventricular, end of diastole) ([2]; 2 month of administration): 4.31 ± 0.27 | Diameter; s (inner diameter of the left ventricular, end of systole) ([2]; 2 month of administration): 3.15 ± 0.39 | EF (Ejection Fraction) ([2]; 2 month of administration): 52.93 ± 7.59 | FS (Fractional Shortening) ([2]; 2 month of administration): 27.23 ± 5.02 | LV Mass (AW) (weight of the left ventricular) ([2]; 2 month of administration): 111.52 ± 7.92 | LVAW; d (left ventricular anterior wall thickness, end of diastole) ([2]; 2 month of administration): 0.78 ± 0.05 | LVAW; s (left ventricular anterior wall thickness, end of systole) ([2]; 2 month of administration): 1.13 ± 0.14 | LVPW; d (left ventricular posterior wall thickness, end of diastole) ([2]; 2 month of administration): 0.69 ± 0.08 | LVPW; s (left ventricular posterior wall thickness, end of systole) ([2]; 2 month of administration): 0.88 ± 0.12 | SV (Stroke Volume) ([2]; 2 month of administration): 43.68 ± 2.20 | Volume; d (volume of the left ventricular, end of diastole) ([2]; 2 month of administration): 83.96 ± 12.12 | Volume; s (volume of the left ventricular, end of systole) ([2]; 2 month of administration): 40.29 ± 11.15 | CO (Cardiac Output) ([2]; 3 month of administration): 22.72 ± 3.18 | Diameter; d (inner diameter of the left ventricular, end of diastole) ([2]; 3 month of administration): 4.61 ± 0.35 | Diameter; s (inner diameter of the left ventricular, end of systole) ([2]; 3 month of administration): 3.47 ± 0.48 | EF (Ejection Fraction) ([2]; 3 month of administration): 48.85 ± 9.39 | FS (Fractional Shortening) ([2]; 3 month of administration): 24.88 ± 5.88 | LV Mass (AW) (weight of the left ventricular) ([2]; 3 month of administration): 124.88 ± 20.30 | LVAW; d (left ventricular anterior wall thickness, end of diastole) ([2]; 3 month of administration): 0.75 ± 0.08 | LVAW; s (left ventricular anterior wall thickness, end of systole) ([2]; 3 month of administration): 0.98 ± 0.09 | LVPW; d (left ventricular posterior wall thickness, end of diastole) ([2]; 3 month of administration): 0.71 ± 0.06 | LVPW; s (left ventricular posterior wall thickness, end of systole) ([2]; 3 month of administration): 0.88 ± 0.11 | SV (Stroke Volume) ([2]; 3 month of administration): 46.95 ± 6.12 | Volume; d (volume of the left ventricular, end of diastole) ([2]; 3 month of administration): 98.37 ± 16.57 | Volume; s (volume of the left ventricular, end of systole) ([2]; 3 month of administration): 51.42 ± 15.53 | CO (Cardiac Output) ([2]; 4 month of administration): 24.42 ± 1.52
